The nature of series [1]: Water solubility of solvents at 25° C. (saturated solution, chromatographic analysis). In kind it is physicochemical. As for the experimental part:
Typically, solvents which have aqueous solubilities of about (or at least) 0.1% w/w [at the relevant temperature] can dissolve appreciably in agrochemical spray tanks under normal dilution conditions [for example, temperatures of from just above freezing to 35° C.]. […] Solvents such as acetophenone are normally formulated with an oil of much lower water solubility. […] Table 2 provides water solubilities for a number of solvents at 25° C. Saturated solutions of each solvent in deionised water were prepared by leaving excess solvent in contact with water for a period of at least two weeks. After this time a sample of the water was analysed chromatographically to determine the concentration of solvent present.

Series [2] has as its system Alopecurus Myosuroides (ALOMY). The experiment in a line: Glass house adjuvant test with pinoxaden, weed kill. Format: in vivo. The following applies: pinoxaden 7.5 g/ha + adjuvant 0.2% by volume in spray-tank, mean (standard deviation), 3 replicates. As for the experimental part:
(§1) The weed species Setaria Viridis (SETVI), Lolium Perenne (LOLPE), Avena Fatua (AVEFA) and Alopecurus Myosuroides (ALOMY) were grown under glass house conditions and sprayed with the herbicide pinoxaden at a rate of 7.5 grams of pesticide per hectare. Weeds were treated with pinoxaden in the absence of (E)-but-2-enedioic acid dibutyl ester (as a control) and also with (E)-but-2-enedioic acid dibutyl ester added to the spray-tank at a concentration of 0.2% by volume. After both 14 and 21 days the efficacy of the herbicide was assessed based on the percentage of the weeds that had been killed. Three replicates were used in all cases. The average percentage of weeds killed is quoted in Table 5 for each weed species either with the adjuvant or without (control). Results have been averaged across three replicates. The standard deviation for each result is shown in brackets after the result.

Another series relates to Avena Fatua (AVEFA). The description is as above. In kind it is in vivo. The following applies: pinoxaden 7.5 g/ha + adjuvant 0.2% by volume in spray-tank, mean (standard deviation), 3 replicates. As for the experimental part:
as §1

The next series concerns Lolium Perenne (LOLPE). The series is described as above. In kind it is in vivo. The following applies: pinoxaden 7.5 g/ha + adjuvant 0.2% by volume in spray-tank, mean (standard deviation), 3 replicates. As for the experimental part: as §1
The test system of another series is Setaria Viridis (SETVI). The series is described as above. In kind it is in vivo. The following applies: pinoxaden 7.5 g/ha + adjuvant 0.2% by volume in spray-tank, mean (standard deviation), 3 replicates. How it is done: as §1
Series [3] has as its system Amaranthus Tuberculatus (AMATU). The experiment in a line: Glass house adjuvant test with mesotrione, weed kill. In kind it is in vivo. The following applies: mesotrione 45 g/ha + adjuvant 0.2% v/v in spray-tank, mean (standard deviation), 3 replicates. As for the experimental part:
The weed species Polygonum Convolvulus, Digitaria Sanguinalis, Brachiaria Decumbens and Amaranthus Tuberculatus were grown under glass house conditions and sprayed with the herbicide mesotrione at rate of 45 grams of pesticide per hectare. Weeds were treated with the mesotrione in the absence of (E)-but-2-enedioic acid dibutyl ester (as a control) and also with (E)-but-2-enedioic acid dibutyl ester added to the spray-tank at a concentration of 0.2% v/v. After 14 and 21 days the efficacy of the herbicide was assessed based on the percentage of the weeds that had been killed. Three replicates were used in all cases. The performance of the solvent was assessed by averaging the three replicates at each time period and for each weed. The standard deviation for each result is shown in brackets after the average percentage weed kill.

Series [4] has as its system Brachiaria Decumbens (BRADE). The description is as above. In kind it is in vivo. The following applies: mesotrione 45 g/ha + adjuvant 0.2% v/v in spray-tank, mean (standard deviation), 3 replicates.
The subject of series [5] is Digitaria Sanguinalis (DIGSA). Described as above. Format: in vivo. The following applies: mesotrione 45 g/ha + adjuvant 0.2% v/v in spray-tank, mean (standard deviation), 3 replicates.
For series [6], the system named is Polygonum Convolvulus (POLCO). Described as above. In kind it is in vivo. The following applies: mesotrione 45 g/ha + adjuvant 0.2% v/v in spray-tank, mean (standard deviation), 3 replicates.
The nature of series [7]: Solubility of chlorothalonil in solvents at 20° C. In kind it is physicochemical.
Setting [8] is: solvent in deionised water, 25° C., contact at least two weeks.

Counter-ions that a name gives are not always drawn. Like-named read-outs stand apart in the source and are kept apart here.

Take `CCCCOC(=O)/C=C/C(=O)OCCCC` [(E)-But-2-enedioic acid dibutyl ester]: the “% water solubility [by weight at 25° C.]” value in series [1] is listed as 0.04 % by weight. Besides, the “average percentage of weeds killed, ALOMY” value in [2] (14 days after application) is 20(17.3) %; in series [2] (21 days after application), 33.3(15.3) %. Also, the “average percentage of weeds killed, AVEFA” value in the series on Avena Fatua (AVEFA) (14 days after application) is on record as 20(10) %; in the series with Avena Fatua (AVEFA) (21 days after application) it was 16.7(5.8) %. Moreover, the “average percentage of weeds killed, LOLPE” value is on record as 13.3(5.8) % in the series on Lolium Perenne (LOLPE) (14 days after application) and 6.7(5.8) % with Lolium Perenne (LOLPE) (21 days after application). In addition, the “average percentage of weeds killed, SETVI” value in the series with Setaria Viridis (SETVI) (14 days after application) is 20(0) %; in the series with Setaria Viridis (SETVI) (21 days after application), 20(10) %. Also, the entries for the “average percentage weed kill, AMATU” value in series [3] (14 days after application) and in [3] (21 days after application) were 76.7(5.8) % and 94(3.6) %, respectively. Moreover, the “average percentage weed kill, BRADE” value in series [4] (14 days after application) was 43.3(5.8) %; in series [4] (21 days after application), 40(0) %. In addition, the figures for the “average percentage weed kill, DIGSA” value in series [5] (14 days after application) and in [5] (21 days after application) were 36.7(2.9) % and 41.7(7.6) %, respectively. For the same compound, the “average percentage weed kill, POLCO” value in series [6] (14 days after application) and in [6] (21 days after application) was 80(10) % each time.

`CC(=O)c1ccccc1` [Acetophenone (methyl phenyl ketone), methyl phenyl ketone]: the “% water solubility [by weight at 25° C.]” value in series [1] amounted to 0.9 % by weight.

For `OCc1ccccc1` [Benzyl alcohol, benzene methanol, Benzyl alcohol], the “% water solubility [by weight at 25° C.]” value in series [1] stood at 4.4 % by weight.

As for `C1CCC2CCCCC2C1` (stereo not drawn) [Decalin, decahydronaphthalene], the “% water solubility [by weight at 25° C.]” value in [1] (setting [8]) is 0.7 % by weight.

Turning to `CCOC(=O)/C=C/C(=O)OCC` [Diethyl fumarate], the “% water solubility [by weight at 25° C.]” value in series [1] amounted to 0.8 % by weight.

`C=C(C)[C@H]1CC=C(C)CC1` [Dipentene, limonene]: the “% water solubility [by weight at 25° C.]” value in series [1] (setting [8]) is recorded as 0.098 % by weight. The “Chlorothalonil solubility in the solvent” value in [7] is on record as 0.18 percentage w/w.

For the compound `CCCCCCCCCCCCc1ccccc1` [Dodecylbenzene, 1-phenyldodecane], in series [1], the “% water solubility [by weight at 25° C.]” value turned out to be 0.000026 % by weight.

Consider `c1ccc2c(c1)CCCC2` [Tetralin, tetrahydronaphthalene], for which, in series [1] (setting [8]), the “% water solubility [by weight at 25° C.]” value stood at 0.18 % by weight.

Turning to `CC(=O)OCC(COC(C)=O)OC(C)=O` [Triacetin (glycerol triacetate), glycerol triacetate], the “% water solubility [by weight at 25° C.]” value in series [1] worked out at 7.7 % by weight.

Regarding “dimethyl heptamide [Genagen ™ 4166 (dimethyl heptamide)]”, in [1] (setting [8]), the “% water solubility [by weight at 25° C.]” value stood at 0.7 % by weight.

(Values after patent US9458085B2, “Formulations” (priority 2010, dated 2016).)
